Measurements reported in the supplement of paper PMC10307832.

Legend:
Assay in all cases: relative viability (nuclei count vs DMSO), 5 days (fraction); higher = more cells survive
[1] = compound: CC(C)C[C@@H](C(=O)N[C@H](C(=O)OC1CCCC1)c1ccccc1)[C@H](O)C(=O)NO [Tosedostat] + CCNC(=O)c1noc(-c2cc(C(C)C)c(O)cc2O)c1-c1ccc(CN2CCOCC2)cc1 [Luminespib] (partner 0.01 µM)
How it was run: (§1)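 Relative viability is defined as nuclei in treated wells over nuclei in vehicle wells. Duplicate plates were run and medians reported. Lung cancer cell lines in 1536-well plates were dosed by pin tool one day after seeding, with one drug or with a fixed anchor-drug dose plus five library-drug doses (not always all listed) in √10 steps, and nuclei were counted after 5 days.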

[2] = compound: CC(C)C[C@@H](C(=O)N[C@H](C(=O)OC1CCCC1)c1ccccc1)[C@H](O)C(=O)NO [Tosedostat] + N=C(N)NC(=N)NCCc1ccccc1 [Phenformin] (partner 250 µM)
How it was run: as §1

[3] = compound: CC(C)C[C@@H](C(=O)N[C@H](C(=O)OC1CCCC1)c1ccccc1)[C@H](O)C(=O)NO [Tosedostat] + Nc1ncn([C@H]2C[C@H](O)[C@@H](CO)O2)c(=O)n1 [Decitabine] (partner 2 µM)
How it was run: as §1

[4] = compound: CC1=NN=C(O1)C2=NN=C(C=C2)N3CCC(CC3)OC4=C(C=CC(=C4)F)Cl + C[C@]1(O)C[C@@H](c2nc(-c3ccc4ccc(-c5ccccc5)nc4c3)c3c(N)nccn32)C1 [Linsitinib] (partner 1 µM)
How it was run: as §1

| Cell Line | relative viability ([1]; first compound 0.02 µM) | relative viability ([1]; first compound 0.06325 µM) | relative viability ([1]; first compound 0.2 µM) | relative viability ([1]; first compound 0.6325 µM) | relative viability ([1]; first compound 2 µM) | relative viability ([2]; first compound 0.02 µM) | relative viability ([2]; first compound 0.06325 µM) | relative viability ([2]; first compound 0.2 µM) | relative viability ([2]; first compound 0.6325 µM) | relative viability ([2]; first compound 2 µM) | relative viability ([3]; first compound 0.02 µM) | relative viability ([3]; first compound 0.06325 µM) | relative viability ([3]; first compound 0.2 µM) | relative viability ([3]; first compound 0.6325 µM) | relative viability ([3]; first compound 2 µM) | relative viability ([4]; first compound 0.253 µM) | relative viability ([4]; first compound 0.8 µM) | relative viability ([4]; first compound 2.53 µM) | relative viability ([4]; first compound 8 µM) |
| --- | --- | --- | --- | --- | --- | --- | --- | --- | --- | --- | --- | --- | --- | --- | --- | --- | --- | --- | --- |
| HCC-44 | 1.29 | 0.987 | 0.985 | 0.957 | 0.834 | 0.19 | 0.221 | 0.183 | 0.111 | 0.117 | 0.941 | 0.919 | 0.943 | 0.865 | 0.747 | 0.423 | 0.484 | 0.484 | 0.384 |
| COR-L23 | 0.792 | 0.729 | 0.687 | 0.698 | 0.504 | 0.486 | 0.386 | 0.415 | 0.383 | 0.401 | 0.465 | 0.411 | 0.393 | 0.405 | 0.37 | 0.669 | 0.726 | 0.678 | 0.579 |
| NCI-H1437 | 1.13 | 1.07 | 1.2 | 1.24 | 1.13 | 0.28 | 0.28 | 0.295 | 0.332 | 0.299 | 0.537 | 0.569 | 0.58 | 0.566 | 0.564 | 0.552 | 0.644 | 0.689 | 0.487 |
| SK-LU-1 | 0.213 | 0.211 | 0.217 | 0.2 | 0.188 | 0.598 | 0.535 | 0.52 | 0.428 | 0.525 | 0.624 | 0.651 | 0.563 | 0.471 | 0.454 | 1.03 | 0.852 | 1.02 | 0.589 |
| NCI-H2347 | 0.421 | 0.425 | 0.594 | 0.417 | 0.474 | 0.384 | 0.439 | 0.55 | 0.267 | 0.275 | 0.64 | 0.609 | 0.667 | 0.444 | 0.542 | 0.636 | 0.69 | 0.766 | 0.658 |
| BEN | 0.467 | 0.387 | 0.264 | 0.435 | 0.248 | 0.263 | 0.251 | 0.269 | 0.253 | 0.273 | 0.79 | 0.761 | 0.676 | 0.734 | 0.665 | 0.784 | 0.879 | 0.919 | 0.75 |
| LCLC-103H | 1.04 | 0.932 | 1.04 | 0.998 | 0.9 | 0.361 | 0.308 | 0.323 | 0.323 | 0.32 | 0.792 | 0.745 | 0.728 | 0.763 | 0.76 | 0.807 | 0.867 | 0.761 | 0.711 |
| EKVX | 0.796 | 0.884 | 0.853 | 0.784 | 0.806 | 0.216 | 0.236 | 0.228 | 0.202 | 0.192 | 0.37 | 0.34 | 0.292 | 0.313 | 0.332 | 0.409 | 0.341 | 0.364 | 0.423 |
| ABC-1 | 0.622 | 0.706 | 0.596 | 0.647 | 0.398 | 0.201 | 0.201 | 0.247 | 0.23 | 0.206 | 1.17 | 1.13 | 1.27 | 1.19 | 1.05 | 0.627 | 0.465 | 0.575 | 0.451 |
| PC-3 [JPC-3] | 0.735 | 0.734 | 0.731 | 0.692 | 0.537 | 0.468 | 0.463 | 0.491 | 0.442 | 0.408 | 0.833 | 0.813 | 0.872 | 0.768 | 0.555 | 0.789 | 0.869 | 0.869 | 0.844 |
| NCI-H23 | 0.233 | 0.203 | 0.22 | 0.237 | 0.207 | 0.782 | 0.802 | 0.754 | 0.707 | 0.404 | 0.309 | 0.315 | 0.323 | 0.286 | 0.306 | 0.482 | – | 0.543 | 0.521 |
| NCI-H1793 | 0.166 | 0.233 | 0.322 | 0.245 | 0.249 | 0.252 | 0.321 | 0.284 | 0.31 | 0.203 | 0.429 | 0.435 | 0.407 | 0.222 | 0.346 | 0.725 | 0.735 | 0.952 | 0.822 |
| LC-2-ad | 1.2 | 1.05 | 0.923 | 0.792 | 0.891 | 0.692 | 0.555 | 0.56 | 0.438 | 0.508 | 0.777 | 0.776 | 0.83 | 0.746 | 0.811 | 0.427 | 0.376 | 0.381 | 0.328 |
| COR-L 105 | 0.693 | 0.726 | 0.835 | 0.733 | 0.693 | 0.517 | 0.465 | 0.447 | 0.399 | 0.363 | 0.747 | 0.622 | 0.681 | 0.537 | 0.596 | 0.764 | 0.935 | 1.1 | 1.21 |
| H3255 | 1.02 | 0.807 | 0.906 | 0.683 | 0.75 | 0.361 | 0.369 | 0.386 | 0.407 | 0.402 | 0.595 | 0.559 | 0.553 | 0.531 | 0.645 | 0.697 | 0.719 | 0.718 | 0.716 |
| NCI-H2087 | 0.181 | 0.158 | 0.273 | 0.229 | 0.21 | 0.473 | 0.413 | 0.329 | 0.28 | 0.22 | 0.37 | 0.23 | 0.24 | 0.224 | 0.225 | 0.646 | 0.659 | 0.621 | 0.53 |
| NCI-H1915 | 0.864 | 0.79 | 0.814 | 0.803 | 0.608 | 0.374 | 0.366 | 0.365 | 0.35 | 0.358 | 0.226 | 0.283 | 0.26 | 0.261 | 0.214 | 0.582 | 0.51 | 0.45 | 0.376 |
